Changes are numbered by the printed parent chain.
How the values were obtained:
[1] = tested on: U87MG pLVX-IDH2 R140Q-neo cells; assay: U87MG pLVX-IDH2 R140Q-neo cell based assay, 2-HG in media by LC-MS at 48 hours; conditions: Homo sapiens, U-87 MG
Method in brief: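 U87MG cells stably expressing IDH2 R140Q were seeded overnight, then exposed to compound at 0.2% final DMSO at 37 °C, 5% CO2. 2-HG in the medium was quantified by LC-MS at 48 h. Growth inhibition was read by CellTiter-Glo luminescence at 72 h.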

IDH2 R140Q = molecular target: T1, IDH2 R140Q (Homo sapiens, UniProt P48735, R140Q); assay: IDH2 R140Q enzymatic assay (cofactor depletion, similar format); type: biochemical; conditions: read-out: Enz R140Q
T1 sequence (P48735 40-452 R140Q): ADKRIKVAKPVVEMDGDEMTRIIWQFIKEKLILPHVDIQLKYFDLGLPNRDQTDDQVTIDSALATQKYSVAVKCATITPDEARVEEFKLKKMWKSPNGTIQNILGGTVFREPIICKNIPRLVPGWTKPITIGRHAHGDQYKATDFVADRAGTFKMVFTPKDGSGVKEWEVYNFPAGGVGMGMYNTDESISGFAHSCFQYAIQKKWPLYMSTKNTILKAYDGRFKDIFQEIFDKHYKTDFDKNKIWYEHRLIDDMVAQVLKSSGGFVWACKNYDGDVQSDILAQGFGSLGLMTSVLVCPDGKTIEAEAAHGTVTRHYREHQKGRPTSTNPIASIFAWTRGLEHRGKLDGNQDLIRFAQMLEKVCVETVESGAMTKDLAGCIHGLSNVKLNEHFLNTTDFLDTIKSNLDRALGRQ

IDH2 R172K = molecular target: T2, IDH2 R172K (Homo sapiens, UniProt P48735, R172K); assay: IDH2 R172K enzymatic assay (NADPH cofactor depletion, diaphorase/resazurin readout); type: biochemical; conditions: read-out: Enz R172K
T2 sequence (P48735 40-452 R172K): T1 sequence (P48735 40-452 R140Q) with Q101R, R133K
Method in brief: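 Compound was preincubated with IDH2 R172K for 1 h at room temperature, then the reaction was started with substrate mix containing 50 μM NADPH and 6.3 mM α-KG. After another 1 h at room temperature, stop mix with diaphorase and resazurin consumed the remaining NADPH, and resorufin fluorescence was read.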

Row | SMILES | IC50 [1] | IC50 (IDH2 R140Q) | IC50 (IDH2 R172K)
1 | CC(C)Nc1nc(Nc2cccc(C#N)c2)nc(-c2ccccn2)n1 [Compound 246, 3-(4-(isopropylamino)-6-(pyridin-2-yl)-1,3,5-triazin-2-ylamino)benzonitrile] | < 100 nM | 100 to 1000 nM | 100 to 1000 nM
2 | CC(C)Nc1nc(Nc2ccccc2)nc(-c2cccc(C(F)(F)F)n2)n1 [Compound 247, N^2-isopropyl-N^4-phenyl-6-(6-(trifluoromethyl)pyridin-2-yl)-1,3,5-triazine-2,4-diamine] | < 100 nM | < 100 nM | < 100 nM
3 | CCNc1nc(Nc2ccncc2)nc(-c2ccccc2)n1 [Compound 248, N^2-ethyl-6-phenyl-N^4-(pyridin-4-yl)-1,3,5-triazine-2,4-diamine] | 100 to 1000 nM | < 100 nM | 1000 to 10000 nM
4 | CCCNc1nc(Nc2ccncc2)nc(-c2ccccc2)n1 [Compound 249, 6-phenyl-N^2-propyl-N^4-(pyridin-4-yl)-1,3,5-triazine-2,4-diamine] | 100 to 1000 nM | < 100 nM | 100 to 1000 nM
5 | c1ccc(-c2nc(NCC3CCC3)nc(Nc3ccncc3)n2)cc1 [Compound 250, N^2-(cyclobutylmethyl)-6-phenyl-N^4-(pyridin-4-yl)-1,3,5-triazine-2,4-diamine] | 100 to 1000 nM | < 100 nM | 100 to 1000 nM
6 | FC1(F)CC(Nc2nc(Nc3ccncc3)nc(-c3ccccc3)n2)C1 [Compound 253, N^2-(3,3-difluorocyclobutyl)-6-phenyl-N^4-(pyridin-4-yl)-1,3,5-triazine-2,4-diamine] | < 100 nM | < 100 nM | 100 to 1000 nM
7 | FC1(F)CCC(Nc2nc(Nc3ccncc3)nc(-c3ccccc3)n2)CC1 [Compound 254, N^2-(4,4-difluorocyclohexyl)-6-phenyl-N^4-(pyridin-4-yl)-1,3,5-triazine-2,4-diamine] | 100 to 1000 nM | < 100 nM | 100 to 1000 nM
8 | CC(Nc1nc(Nc2ccncc2)nc(-c2ccccc2)n1)C(C)(C)C (stereo not drawn) [Compound 255, N^2-(3,3-dimethylbutan-2-yl)-6-phenyl-N^4-(pyridin-4-yl)-1,3,5-triazine-2,4-diamine] | < 100 nM | < 100 nM | 100 to 1000 nM
9 | CC(Nc1nc(Nc2ccncc2)nc(-c2ccccc2)n1)C1CC1 (stereo not drawn) [Compound 257, N^2-(1-cyclopropylethyl)-6-phenyl-N^4-(pyridin-4-yl)-1,3,5-triazine-2,4-diamine] | 100 to 1000 nM | < 100 nM | 100 to 1000 nM
10 | CC(C)(CO)CNc1nc(Nc2ccncc2)nc(-c2ccccc2)n1 [Compound 259, 2,2-dimethyl-3-(4-phenyl-6-(pyridin-4-ylamino)-1,3,5-triazin-2-ylamino)propan-1-ol] | 100 to 1000 nM | 100 to 1000 nM | > 10000 nM
11 | CCCCNc1nc(Nc2ccnc(Cl)c2)nc(-c2ccccc2)n1 [Compound 260] | < 100 nM | < 100 nM | < 100 nM
12 | CC(C)(CO)CNc1nc(Nc2ccnc(Cl)c2)nc(-c2ccccc2)n1 [Compound 261] | < 100 nM | < 100 nM | 100 to 1000 nM
13 | CCOCCNc1nc(Nc2ccncc2)nc(-c2ccccc2)n1 [Compound 262, N^2-(2-ethoxyethyl)-6-phenyl-N^4-(pyridin-4-yl)-1,3,5-triazine-2,4-diamine] | 100 to 1000 nM | 100 to 1000 nM | 1000 to 10000 nM
14 | FC(F)(F)CCNc1nc(Nc2ccncc2)nc(-c2ccccc2)n1 [Compound 263, 6-phenyl-N^2-(pyridin-4-yl)-N^4-(3,3,3-trifluoropropyl)-1,3,5-triazine-2,4-diamine] | 100 to 1000 nM | < 100 nM | 1000 to 10000 nM
15 | CC(C)Nc1nc(Nc2cncnc2)nc(-c2ccccc2)n1 [Compound 266, N^2-isopropyl-6-phenyl-N^4-(pyrimidin-5-yl)-1,3,5-triazine-2,4-diamine] | 100 to 1000 nM | < 100 nM | 1000 to 10000 nM
16 | O[C@@H]1CC[C@@H](Nc2nc(Nc3ccccc3)nc(-c3ccccc3)n2)C1 [Compound 267, (1R,3R)-3-(4-phenyl-6-(phenylamino)-1,3,5-triazin-2-ylamino)cyclopentanol] | 100 to 1000 nM | < 100 nM | 1000 to 10000 nM
17 | c1ccc(Nc2nc(NC3CCCOC3)nc(-c3ccccc3)n2)cc1 (stereo not drawn) [Compound 268, N^2,6-diphenyl-N^4-(tetrahydro-2H-pyran-3-yl)-1,3,5-triazine-2,4-diamine] | 100 to 1000 nM | < 100 nM | 100 to 1000 nM
18 | COCC(C)Nc1nc(Nc2ccccc2)nc(-c2ccccc2)n1 (stereo not drawn) [Compound 269, N^2-(1-methoxypropan-2-yl)-N^4,6-diphenyl-1,3,5-triazine-2,4-diamine] | < 100 nM | < 100 nM | 100 to 1000 nM
19 | CC(C)Nc1nc(Nc2ccccc2)nc(-c2cc(C(F)(F)F)ccn2)n1 [Compound 270, N^2-isopropyl-N^4-phenyl-6-(4-(trifluoromethyl)pyridin-2-yl)-1,3,5-triazine-2,4-diamine] | 100 to 1000 nM | < 100 nM | 100 to 1000 nM
20 | CC(C)Nc1nc(Nc2ccnc(C(F)(F)F)c2)nc(-c2cccc(C(F)(F)F)n2)n1 [Compound 335, N^2-isopropyl-6-(6-(trifluoromethyl)pyridin-2-yl)-N^4-(2-(trifluoromethyl)pyridin-4-yl)-1,3,5-triazine-2,4-diamine] | < 100 nM | 100 to 1000 nM | < 100 nM
21 | FC(F)(F)c1cc(Nc2nc(NC3COC3)nc(-c3ccccn3)n2)ccn1 [Compound 336, N^2-(oxetan-3-yl)-6-(pyridin-2-yl)-N^4-(2-(trifluoromethyl)pyridin-4-yl)-1,3,5-triazine-2,4-diamine] | < 100 nM | 100 to 1000 nM | 100 to 1000 nM
22 | FC(F)(F)c1cccc(-c2nc(Nc3cnoc3)nc(NC3COC3)n2)n1 [Compound 337, N^2-(isoxazol-4-yl)-N^4-(oxetan-3-yl)-6-(6-(trifluoromethyl)pyridin-2-yl)-1,3,5-triazine-2,4-diamine] | 100 to 1000 nM | 100 to 1000 nM | 1000 to 10000 nM
23 | CC(C)Nc1nc(Nc2cc(F)cc(F)c2)nc(-c2cccc(Cl)n2)n1 [Compound 340, 6-(6-chloropyridin-2-yl)-N^2-(3,5-difluorophenyl)-N^4-isopropyl-1,3,5-triazine-2,4-diamine] | < 100 nM | < 100 nM | < 100 nM
24 | CC(C)Nc1nc(Nc2cccc(S(=O)(=O)NC3CC3)c2)nc(-c2ccccc2)n1 [Compound 341, N-cyclopropyl-3-(4-(isopropylamino)-6-phenyl-1,3,5-triazin-2-ylamino)benzenesulfonamide] | < 100 nM | < 100 nM | 100 to 1000 nM
25 | CC(C)Nc1nc(Nc2cccc(S(=O)(=O)NC(C)(C)C)c2)nc(-c2ccccc2)n1 [Compound 342, N-tert-butyl-3-(4-(isopropylamino)-6-phenyl-1,3,5-triazin-2-ylamino)benzenesulfonamide] | 1000 to 10000 nM | 100 to 1000 nM | 1000 to 10000 nM
26 | CC(C)Nc1nc(Nc2ccc(F)nc2)nc(-c2cccc(Cl)n2)n1 [Compound 344, 6-(6-chloropyridin-2-yl)-N^2-(6-fluoropyridin-3-yl)-N^4-isopropyl-1,3,5-triazine-2,4-diamine] | < 100 nM | 100 to 1000 nM | < 100 nM
27 | Fc1ccc(Nc2nc(NC3CCC3)nc(-c3ccccn3)n2)cn1 [Compound 345, N^2-cyclobutyl-N^4-(6-fluoropyridin-3-yl)-6-(pyridin-2-yl)-1,3,5-triazine-2,4-diamine] | 100 to 1000 nM | 100 to 1000 nM | 100 to 1000 nM
28 | Cc1cc(Nc2nc(NC(=O)C(C)(C)C)nc(-c3ccccc3)n2)ccn1 [Compound 350] | 100 to 1000 nM | 100 to 1000 nM | 1000 to 10000 nM
29 | CC(C)Nc1nc(Nc2cccc(S(C)(=O)=O)c2)nc(-c2cccc(C(F)(F)F)n2)n1 [Compound 358, N^2-isopropyl-N^4-(3-(methylsulfonyl)phenyl)-6-(6-(trifluoromethyl)pyridin-2-yl)-1,3,5-triazine-2,4-diamine] | < 100 nM | 100 to 1000 nM | 100 to 1000 nM
30 | CC(C)Nc1nc(Nc2cncc(C(F)(F)F)c2)nc(-c2ccccc2F)n1 [Compound 372, 6-(2-fluorophenyl)-N^2-isopropyl-N^4-(5-(trifluoromethyl)pyridin-3-yl)-1,3,5-triazine-2,4-diamine] | < 100 nM | < 100 nM | < 100 nM

Source: patent publication US9512107B2, “Therapeutically active compositions and their methods of use” (Agios Pharmaceuticals, Inc., priority 2012, dated 2016)
